Assay results taken from patent US10590121B2, “Kinase inhibitors and methods for making and using” (Rigel Pharmaceuticals, Inc., priority 2017, dated 2020).

What was measured:
[1] = tested on: LPS induced IL23p19 in THP-1 cells; experiment: LPS Induced IL23p19 in THP-1 Cells (with IFNγ Primed) Assay; assay type: cell-based; settings: Homo sapiens; THP-1 cells primed with IFNγ 50 ng/mL, 1 μg/mL LPS, 18 hours, 10 pt; read-out: IL23-p19 ELISA, THP1-IFNy, LPS, 10 pt EC50
From the text: LPS Induced IL23p19 in THP-1 Cells (with IFNγ Primed) Assay
THP-1 Cells (ATCC, Cat # TIB-202), Dimethyl Sulfoxide (DMSO) (Sigma-Aldrich, Cat # D2650), RPMI 1640 (Cellgro, Cat #10-040-CM), Fetal Bovine Serum (Sigma, Cat # F4135), Albumin From Bovine Serum (BSA) (Sigma-Aldrich, Cat # A7906), LPS (Serotype K-235, Sigma, Product Number L 2143), IFNγ (Peprotech, Cat #300-02), Capture antibody: Human IL-23p19 ELISA (e-Bioscience, Cat. #14-7238-85), Detection antibody: Primary Mouse Biotinylated anti-human IL-12 (p40/p70) (e-Bioscience, Cat. #13-7129-85), Secondary HRP-conjugated Streptavidin (R&D Systems, Cat # DY998), 1×PBST Washing Buffer (PBS-Tween tablet) (VWR International, Cat #80058-558), ELISA Blocking Buffer (PBS with 1% BSA), ELISA Dilution Buffer (PBS with 1% BSA), 384 Well Flat-Bottom, MaxiSorp Black Immuno Plates (Thermo Scientific, Cat #12-565-346), 384 Well Flat-Bottom, White Tissue Culture Plates (Thermo Scientific, Cat #12-565-343), Super Signal ELISA Pico Chemiluminescent Substrate (Thermo Scientific, Cat #37070), Cell Titer Glo reagent (Promega, Cat # G7573), Positive control, IKK2VI inhibitor (Calbiochem, Cat #401483), AquaMax 4000 plate washer (Molecular Devices), Luminometer, Wallac Victor2 1420 Multilabel Counter.
On day 1, 50K/well THP-1 cells were seeded and primed with IFNγ (50 ng/mL) in 384-well plates for about 18 hours in RPMI media with 10% FBS. On day 2, the compound was serially diluted in DMSO from 5 mM in 3-fold dilutions, and then diluted 1:125 in RPMI media with 10% FBS. 50 μL/well 2× compound was added to 50 μL/well THP-1 cells (with IFNγ primed) in duplicate in 384 well tissue culture plates. The cells were pre-incubated with compound for 1 hour at 37° C., 5% CO2 before addition of 10 μL/well 11×LPS to give a final concentration of 1 μg/mL LPS. Day 3, after stimulation for 18 hours at 37° C., 5% CO2, the assay plate was centrifuged and 70 μL/well supernatant was harvested. IL-23p19 protein in 70 μL/well of supernatant was measured by sandwich ELISA, and 25 μl/well Cell Titer Glo reagent was added to the remaining cells to measure compound toxicity.
Human IL-23p19 Sandwich ELISA:
Maxisorp immuno ELISA plates were pre-coated with 25 μL/well of anti-IL-23p19 capture antibody (2.5 ug/mL) in PBS overnight at room temperature. After washing with 1×PBST, the plates were blocked using 100 μL/well of 1% BSA in PBS for 2 hours at room temperature. The plates were washed three times with 1×PBST and 70 μL/well supernatant were added. The plates were incubated at room temperature for 2 hours with shaking and washed three times with 1×PBST. 25 μL/well of biotin labeled anti-IL-12 (p40/p70) detection antibody (100 ng/mL) in PBS with 1% BSA was added and the plates were incubated at room temperature for 2 hours with shaking. After washing three times with 1×PBST, 25 μL/well of streptavidin-HRP (1:200) in PBS with 1% BSA was added and the plates were incubated at room temperature for 20 minutes with shaking. The plates were washed three times with 1×PBST and 25 μL/well of Super Signal ELISA Pico Chemiluminescent Substrate were added. The plates were read with a luminometer, and the chemiluminescence values were entered into Athena (Rigel) for curve fitting, EC50 calculation, and database storage.

[2] = tested on: LPS induced IL-23 (p19/p40) in DC cells differentiated from human PBMC; experiment: IL23-p19 ELISA, dendritic cells (DC differentiated from human PBMC), IFNγ primed, LPS stimulated; assay type: cell-based; settings: human PBMC-derived dendritic cells, 1 μg/ml LPS, 18 hours, 10 pt
Protocol: Compound Screening Using DC Cells
1. Differentiation of PBMC's to DC Cells:
Human PBMC cells (400 million) obtained from the vendor were transferred into a T-175 flask containing 15 ml RPMI media (10% FBS) and incubate for 2 hours at 37° C. After 2 hours, the media including floating cells was aspirated out carefully and 12 ml of fresh RPMI media (10% FBS) containing GMCSF (100 ng/ml) and IL4 (20 ng/ml) was added, and the flask was kept in a 37° C. incubator for 7 days.
After 3 days, fresh GMCSF (100 ng/ml) and IL4 (20 ng/ml) were added to the flask and the incubation continued. After 7 days, the fully differentiated cells were harvested by spinning down (1200 rpm/5 min) and aspirating the media. The cells were suspended in fresh RPMI media (10% FBS) containing 50 ng/ml IFNγ (1000 U/ml) and then plated (50K/well in 100 μl) onto a white clear bottom 96 well plate and left in a 37° C. incubator for 24 hours.
2. Addition of Compounds:
After 24 hours incubation, 100 μl of RPMI media was added containing 2× concentrated test compound per well to the above cell-culture media (final concentration becomes 1×) and the plates were pre-incubated for 1 hour at 37° C. before stimulating with LPS.
After 1 hour compound pre-incubation, 10 μl per well of 20× concentrated LPS solution in RPMI media was added to give a final concentration of 1 μg/ml. The mixture was shaken and incubated the plates at 37° C. for an additional 18 hours.
155 μl of the supernatant was harvested from each well carefully (without the tip touching the bottom of the well) and to the remaining 50 μl/well of the cell culture plate was added 50 μl of Cell Titer Glo reagent. The mixture was incubated for 1-2 minutes on a shaker and the plate was read for luminescence intensity to determine the compound cytotoxicity. The cell culture supernatant collected above was used to carry out IL23 ELISA (65 μl-Supernatant) and IL10 ELISA (90 μl-Supernatant) as described below.
Human IL-23 (p19/p40) ELISA Protocol (e-Biosciences)
To 10.5 ml PBS add 50 μl of anti-IL23 (p19) was added capture antibody (2.5 μg/ml). The mixture was mixed well and 100 μl of the coating solution was added to each well of the 96 well white plates from Pierce. The wells were covered and incubated overnight at 4° C.
The anti-IL23 (p19)-antibody-coated plates were washed 2× using TBST (use plate washer) and blocked using 200 μl of 0.5% Casein for 1.5-2 hours at room temperature with shaking.
The plates were washed 2× using TBST and the supernatant was transferred (65 μl/well) to the above pre-blocked/IL23 (p19)-antibody-coated 96 well plate, and incubated at room temperature for 1.5 hours with shaking.
The plates were washed 4× using TBST (plate washer) and 100 μl/well detection antibody solution prepared from 2 μl of biotin labeled anti-IL-12 (p40/p70) antibody in 11 ml 1% BSA/PBS solution (1-5000 dilution) was added. The plates were incubated for 1 hour with shaking at room temperature.
Again, the plates were washed 4× with TBST and 100 μl of HRP labeled Streptavidin (R&D Systems) solution (10 μl/10 ml 1% BSA solution) was added, and the plates were incubated at room temperature for another 45 minutes with shaking.
After 45 minutes, the plates were washed with TBST 4× and 100 ul/well Super Signal ELISA Pico Chemiluminescent Substrate from Pierce (3.5 ml A+3.5 ml B+3.5 ml MQ water) was added. The plates were shaken for 1-2 minutes then read on a plate reader.

| EC50 [1] [µM] | Structure (SMILES) | EC50 [2] [µM] |
| --- | --- | --- |
| 1.08 | O=C(Nc1cc(C(F)(F)CN2CCOCC2)ccc1N1CCCCC1)c1csc(-c2cn[nH]c2)n1 [I-35, N-(5-(1,1-difluoro-2-morpholinoethyl)-2-(piperidin-1-yl)phenyl)-2-(1H-pyrazol-4-yl)thiazole-4-carboxamide] | 2.6 |
| 2.72 | O=C(Nc1ccc(N2CCOCC2)cc1N1CCCCC1)c1cccc(-c2cn[nH]c2)n1 [I-36, N-(4-morpholino-2-(piperidin-1-yl)phenyl)-6-(1H-pyrazol-4-yl)picolinamide] | 1.3 |
| 0.262 | O=C(Nc1ccc(N2CCOCC2)cc1N1CCCCC1)c1ccc(-c2cn[nH]c2)o1 [I-37, N-(4-morpholino-2-(piperidin-1-yl)phenyl)-5-(1H-pyrazol-4-yl)furan-2-carboxamide] | 0.153 |
| 31.1 | O=C(Nc1ccc(N2CCOCC2)cc1N1CCCCC1)c1csc(-c2cn[nH]c2)n1 [I-38, N-(4-morpholino-2-(piperidin-1-yl)phenyl)-2-(1H-pyrazol-4-yl)thiazole-4-carboxamide] | 3.98 |
| 6.59 | COc1ccc(N2CCOCC2)cc1NC(=O)c1cccc(-c2cn[nH]c2)n1 [I-39, N-(2-methoxy-5-morpholinophenyl)-6-(1H-pyrazol-4-yl)picolinamide] | 3.23 |
| 3.92 | COc1ccc(N2CCOCC2)cc1NC(=O)c1csc(-c2cn[nH]c2)n1 [I-41, N-(2-methoxy-5-morpholinophenyl)-2-(1H-pyrazol-4-yl)thiazole-4-carboxamide] | 9.22 |
| 1.04 | O=C(Nc1cnc(N2CCOCC2)cc1N1CCCCC1)c1cccc(-c2cn[nH]c2)n1 [I-42, N-(6-morpholino-4-(piperidin-1-yl)pyridin-3-yl)-6-(1H-pyrazol-4-yl)picolinamide] | 3.08 |
| 2.69 | O=C(Nc1cnc(N2CCOCC2)cc1N1CCCCC1)c1ccc(-c2cn[nH]c2)o1 [I-43, N-(6-morpholino-4-(piperidin-1-yl)pyridin-3-yl)-5-(1H-pyrazol-4-yl)furan-2-carboxamide] | 3.45 |
| 0.222 | O=C(Nc1cnc(N2CCOCC2)cc1N1CCCCC1)c1csc(-c2cn[nH]c2)n1 [I-44, N-(6-morpholino-4-(piperidin-1-yl)pyridin-3-yl)-2-(1H-pyrazol-4-yl)thiazole-4-carboxamide] | 0.229 |
| 0.117 | O=C(Nc1ccc(C(=O)N2CCOCC2)cc1N1CCCCC1)c1cccc(-c2cn[nH]c2)n1 [I-45, N-(4-(morpholine-4-carbonyl)-2-(piperidin-1-yl)phenyl)-6-(1H-pyrazol-4-yl)picolinamide] | 0.084 |
| 1.36 | O=C(Nc1ccc(C(=O)N2CCOCC2)cc1N1CCCCC1)c1ccc(-c2cn[nH]c2)o1 [I-46, N-(4-(morpholine-4-carbonyl)-2-(piperidin-1-yl)phenyl)-5-(1H-pyrazol-4-yl)furan-2-carboxamide] | 2.66 |
| 0.164 | O=C(Nc1ccc(C(=O)N2CCOCC2)cc1N1CCCCC1)c1csc(-c2cn[nH]c2)n1 [I-47, N-(4-(morpholine-4-carbonyl)-2-(piperidin-1-yl)phenyl)-2-(1H-pyrazol-4-yl)thiazole-4-carboxamide] | 2.46 |
| 0.177 | O=C(Nc1ccc(CN2CCOCC2)cc1N1CCCCC1)c1cccc(-c2cn[nH]c2)n1 [I-48, N-(4-(morpholinomethyl)-2-(piperidin-1-yl)phenyl)-6-(1H-pyrazol-4-yl)picolinamide] | 0.468 |
| 1.27 | O=C(Nc1ccc(CN2CCOCC2)cc1N1CCCCC1)c1ccc(-c2cn[nH]c2)o1 [I-49, N-(4-(morpholinomethyl)-2-(piperidin-1-yl)phenyl)-5-(1H-pyrazol-4-yl)furan-2-carboxamide] | 2.96 |
| 0.13 | O=C(Nc1ccc(CN2CCOCC2)cc1N1CCCCC1)c1csc(-c2cn[nH]c2)n1 [I-50, N-(4-(morpholinomethyl)-2-(piperidin-1-yl)phenyl)-2-(1H-pyrazol-4-yl)thiazole-4-carboxamide] | 0.0717 |
| 0.0656 | O=C(Nc1ccc(CC(=O)N2CCOCC2)cc1N1CCCCC1)c1cccc(-c2cn[nH]c2)n1 [I-51, N-(4-(2-morpholino-2-oxoethyl)-2-(piperidin-1-yl)phenyl)-6-(1H-pyrazol-4-yl)picolinamide] | 0.154 |
| 1.06 | O=C(Nc1ccc(CC(=O)N2CCOCC2)cc1N1CCCCC1)c1ccc(-c2cn[nH]c2)o1 [I-52, N-(4-(2-morpholino-2-oxoethyl)-2-(piperidin-1-yl)phenyl)-5-(1H-pyrazol-4-yl)furan-2-carboxamide] | 3.17 |
| 0.167 | O=C(Nc1ccc(CC(=O)N2CCOCC2)cc1N1CCCCC1)c1csc(-c2cn[nH]c2)n1 [I-53, N-(4-(2-morpholino-2-oxoethyl)-2-(piperidin-1-yl)phenyl)-2-(1H-pyrazol-4-yl)thiazole-4-carboxamide] | 0.409 |
